Experimental data: patent publication US9274101B2 (BIOLOG, Inc., priority 2001, dated 2016)

What was measured:
Assay type in all cases: cell-based, human
[1] = tested on: Undifferentiated HL-60 cells; test: Energy use by undifferentiated HL-60 cells
HL-60 cells = test: Effect of 10 mM citric acid on HL-60 energy utilization; conditions: negative control without energy sources and without citric acid
HepG2 cells = HepG2 cells on flat bottom plastic wells, energy sources at a range of concentrations
Protocol: In this Example, methods for testing adherent cells for their ability to use multiple carbon sources are described. The human hepatocellular carcinoma cell line known as HepG2 (Knowles et al., Science, 209:497-499 [1980]) was chosen for this experiment. However, this application is not intended to be limited to the use of HepG2 cells, hepatocytes, carcinoma cells or even human cells.
HepG2 cells were grown in Falcon tissue culture flasks with vented tops. The culture medium used was Minimal Essential medium (MEM, Invitrogen 11095) with 1 g/L glucose, 2 mM L-glutamine, 2.2 g/L sodium bicarbonate, 10 mg/L phenol red, and supplemented with 0.1 mM Nonessential Amino Acids, 1 mM sodium pyruvate, 50 U/mL penicillin, 50 μg/mL streptomycin, and 10% (v/v) heat inactivated fetal bovine serum (HI FBS, Invitrogen 16140). The cells were seeded at 2×10^4/cm^2 and used 3 days after initiation of culture. During all incubations, the cells were kept in an atmosphere of 5% CO2, 90-100% humidity, and 37° C. Cells were harvested by trypsinization for 3 minutes in 0.25% trypsin-1 mM EDTA and resuspended in an equal volume of culture medium. A viable cell count was obtained by trypan blue exclusion and an appropriate volume of the cell suspension (to have 33% more viable cells than was sufficient for the experiment) was placed in a polypropylene centrifuge tube. Cells were pelleted by centrifugation at 350×g for 10 minutes at room temperature, resuspended in Dulbecco's Phosphate Buffered Saline (D-PBS, Invitrogen 14040) and centrifuged a second time. Cells were then resuspended to two-thirds the final volume needed in Dulbecco' ? s Modified Eagle's Medium (DME, Sigma D5030) containing 10% HI FBS and penicillin-streptomycin but without glucose, L-glutamine, sodium pyruvate, and phenol red. An aliquot was counted by trypan blue exclusion and the cell density was adjusted to 1.28×10^5/mL. Cells were plated in 100 μL/well in wells of standard, 96-well plates (4×10^4 cells/cm^2) and allowed to adhere overnight prior to addition of test chemicals.
For assay, the culture medium was aspirated, the wells were washed once with D-PBS and 170 μL of DME were added to each well, followed by 30 μL of the appropriate dilution of each test energy source. Stocks of 133 mM of each test chemical were prepared in tissue culture grade water, sterile filtered, and dilutions were prepared in a master plate so that, upon dilution into a regular 96-well MICROPLATE a total well volume of 200 μL, the final concentrations would be 0.033 to 20 mM. Negative control wells received 30 μL of tissue culture grade water. For each plate containing energy sources and cells, a second, control plate containing only energy sources was prepared. Plates were incubated at 5% CO2, 90-100% humidity, and 37° C. for 48 to 72 hours prior to addition of the MTS/PMS colorometric reagent (10 μL/well). The color formed in each well 4-24 hours after addition of the calorimetric reagent, was measured with a plate reader at 490 nm with a reference wavelength of 650 nm. OD values from the control plate were subtracted from the OD values obtained with cells prior to normalizing the data to % negative control (cells without added energy source).

[2] = tested on: DMSO-differentiated HL-60 cells; test: Energy use by DMSO-differentiated HL-60 cells
Protocol: In this Example, methods for testing in vitro-differentiated cells for their ability to use multiple energy sources are described. Prior to differentiation, HL-60 cells were cultured as described in Example 27. DMSO-induced differentiation (Odani et al., Res. Commun. Mol. Pathol. Pharmacol. 108:381-391 [2000]; and Yamaguchi et al., Biol. Pharm. Bull. 20:943-947 [1997]) was accomplished by incubation of the cells in the presence of 1.25% DMSO for 3 days.
After washing, HL-60 cells were resuspended in DME-R. An aliquot of the cell suspension was counted by trypan blue exclusion and the cell density was adjusted to 6.67×10^5/mL. Fifty μL of DME-R were added to each well of the appropriate number of half area, 96-well plates, followed by 25 μL of the appropriate dilution of each test energy source. Stocks of 133 mM of each test chemical were prepared in tissue culture grade water, sterile filtered, and dilutions were prepared in a master plate so that, upon dilution into a half-area 96-well microtiter plate to a total well volume of 150 μL, the final concentrations would be 0.033 to 20 mM. Negative control wells received 25 μL of tissue culture grade water. The cells were plated at a volume of 75 μL/well, giving a final cell density of 5×10^4/well. For each plate containing energy sources and cells, a second, control plate containing only energy sources was prepared with the same total volume of liquid (148 μL/well). Plates were incubated at 5% CO2, 90-100% humidity, and 37° C. for 24 hours prior to addition of the MTS/MPMS calorimetric reagent (7.5 μL/well). The color formed in each well 24 hours after addition of the colorimetric reagent, was measured with a plate reader at 490 nm with a reference wavelength of 650 nm. OD values from the control plate were subtracted from the OD values obtained with cells prior to normalizing the data to % negative control (cells without added energy source).

O=C1O[C@@H]([C@H](O)CO)[C@H](O)[C@H]1O [D-gal acid g-lactone]
Energy Use by Undifferentiated HL-60 Cells ([1]; Conc. 0.03 mM): 122.7 % of negative control | Energy Use by Undifferentiated HL-60 Cells ([1]; Conc. 0.10 mM): 127.4 % of negative control | Energy Use by Undifferentiated HL-60 Cells ([1]; Conc. 0.33 mM): 125.3 % of negative control | Energy Use by Undifferentiated HL-60 Cells ([1]; Conc. 1.00 mM): 133.2 % of negative control | Energy Use by Undifferentiated HL-60 Cells ([1]; Conc. 3.3 mM): 152.6 % of negative control | Energy Use by Undifferentiated HL-60 Cells ([1]; Conc. 10 mM): 136.7 % of negative control | Energy Use by Undifferentiated HL-60 Cells ([1]; Conc. 15 mM): 147.5 % of negative control | Energy Use by Undifferentiated HL-60 Cells ([1]; Conc. 20 mM): 125.0 % of negative control | Effect of 10 mM Citric Acid on HL-60 Energy Utilization (HL-60 cells; energy source 0.03 mM with 10 mM citric acid): 9.5 % of negative control | Effect of 10 mM Citric Acid on HL-60 Energy Utilization (HL-60 cells; energy source 0.10 mM with 10 mM citric acid): 20.9 % of negative control | Effect of 10 mM Citric Acid on HL-60 Energy Utilization (HL-60 cells; energy source 0.33 mM with 10 mM citric acid): 35.7 % of negative control | Effect of 10 mM Citric Acid on HL-60 Energy Utilization (HL-60 cells; energy source 1.00 mM with 10 mM citric acid): 63.3 % of negative control | Effect of 10 mM Citric Acid on HL-60 Energy Utilization (HL-60 cells; energy source 3.3 mM with 10 mM citric acid): 162.8 % of negative control | Effect of 10 mM Citric Acid on HL-60 Energy Utilization (HL-60 cells; energy source 10 mM with 10 mM citric acid): 151.5 % of negative control | Effect of 10 mM Citric Acid on HL-60 Energy Utilization (HL-60 cells; energy source 15 mM with 10 mM citric acid): 126.5 % of negative control | Effect of 10 mM Citric Acid on HL-60 Energy Utilization (HL-60 cells; energy source 20 mM with 10 mM citric acid): 115.7 % of negative control | HepG2 Cells Responses After 72 hours in Culture and a 4 hour Color Development Period (HepG2 cells; Conc. 0.03 mM): 111.3 % of negative control | HepG2 Cells Responses After 72 hours in Culture and a 4 hour Color Development Period (HepG2 cells; Conc. 0.10 mM): 142.3 % of negative control | HepG2 Cells Responses After 72 hours in Culture and a 4 hour Color Development Period (HepG2 cells; Conc. 0.33 mM): 164.7 % of negative control | HepG2 Cells Responses After 72 hours in Culture and a 4 hour Color Development Period (HepG2 cells; Conc. 1.00 mM): 162.9 % of negative control | HepG2 Cells Responses After 72 hours in Culture and a 4 hour Color Development Period (HepG2 cells; Conc. 3.3 mM): 157.3 % of negative control | HepG2 Cells Responses After 72 hours in Culture and a 4 hour Color Development Period (HepG2 cells; Conc. 10 mM): 178.4 % of negative control | HepG2 Cells Responses After 72 hours in Culture and a 4 hour Color Development Period (HepG2 cells; Conc. 15 mM): 239.3 % of negative control | HepG2 Cells Responses After 72 hours in Culture and a 4 hour Color Development Period (HepG2 cells; Conc. 20 mM): 207.6 % of negative control | Energy Use by DMSO-Differentiated HL-60 Cells ([2]; Conc. 0.03 mM): 111.9 % of negative control | Energy Use by DMSO-Differentiated HL-60 Cells ([2]; Conc. 0.10 mM): 122.9 % of negative control | Energy Use by DMSO-Differentiated HL-60 Cells ([2]; Conc. 0.33 mM): 133.3 % of negative control | Energy Use by DMSO-Differentiated HL-60 Cells ([2]; Conc. 1.00 mM): 157.1 % of negative control | Energy Use by DMSO-Differentiated HL-60 Cells ([2]; Conc. 3.3 mM): 185.9 % of negative control | Energy Use by DMSO-Differentiated HL-60 Cells ([2]; Conc. 10 mM): 166.9 % of negative control | Energy Use by DMSO-Differentiated HL-60 Cells ([2]; Conc. 15 mM): 130.4 % of negative control | Energy Use by DMSO-Differentiated HL-60 Cells ([2]; Conc. 20 mM): 99.2 % of negative control

N[C@@H](Cc1c[nH]cn1)C(=O)O [L-histidine]
activity at 30 µM ([1]; Homo sapiens, HL-60, 24 h, Conc. 0.03 mM, read-out: Energy Use by Undifferentiated HL-60 Cells): 119% | activity at 100 µM ([1]; Homo sapiens, HL-60, 24 h, Conc. 0.10 mM, read-out: Energy Use by Undifferentiated HL-60 Cells): 117% | activity at 330 µM ([1]; Homo sapiens, HL-60, 24 h, Conc. 0.33 mM, read-out: Energy Use by Undifferentiated HL-60 Cells): 105% | activity at 1000 µM ([1]; Homo sapiens, HL-60, 24 h, Conc. 1.00 mM, read-out: Energy Use by Undifferentiated HL-60 Cells): 118% | activity at 3300 µM ([1]; Homo sapiens, HL-60, 24 h, Conc. 3.3 mM, read-out: Energy Use by Undifferentiated HL-60 Cells): 162% | activity at 10000 µM ([1]; Homo sapiens, HL-60, 24 h, Conc. 10 mM, read-out: Energy Use by Undifferentiated HL-60 Cells): 144% | activity at 15000 µM ([1]; Homo sapiens, HL-60, 24 h, Conc. 15 mM, read-out: Energy Use by Undifferentiated HL-60 Cells): 149% | activity at 20000 µM ([1]; Homo sapiens, HL-60, 24 h, Conc. 20 mM, read-out: Energy Use by Undifferentiated HL-60 Cells): 104% | activity at 30 µM (HepG2 cells; Homo sapiens, HepG2, 72 h, Conc. 0.03 mM, read-out: HepG2 Cells Responses After 72 hours in Culture and a 4 hour Color Development Period): 125% | activity at 100 µM (HepG2 cells; Homo sapiens, HepG2, 72 h, Conc. 0.10 mM, read-out: HepG2 Cells Responses After 72 hours in Culture and a 4 hour Color Development Period): 142% | activity at 330 µM (HepG2 cells; Homo sapiens, HepG2, 72 h, Conc. 0.33 mM, read-out: HepG2 Cells Responses After 72 hours in Culture and a 4 hour Color Development Period): 173% | activity at 1000 µM (HepG2 cells; Homo sapiens, HepG2, 72 h, Conc. 1.00 mM, read-out: HepG2 Cells Responses After 72 hours in Culture and a 4 hour Color Development Period): 148% | activity at 3300 µM (HepG2 cells; Homo sapiens, HepG2, 72 h, Conc. 3.3 mM, read-out: HepG2 Cells Responses After 72 hours in Culture and a 4 hour Color Development Period): 180% | activity at 10000 µM (HepG2 cells; Homo sapiens, HepG2, 72 h, Conc. 10 mM, read-out: HepG2 Cells Responses After 72 hours in Culture and a 4 hour Color Development Period): 210% | activity at 15000 µM (HepG2 cells; Homo sapiens, HepG2, 72 h, Conc. 15 mM, read-out: HepG2 Cells Responses After 72 hours in Culture and a 4 hour Color Development Period): 195% | activity at 20000 µM (HepG2 cells; Homo sapiens, HepG2, 72 h, Conc. 20 mM, read-out: HepG2 Cells Responses After 72 hours in Culture and a 4 hour Color Development Period): 72.1% | activity at 30 µM ([2]; Homo sapiens, HL-60, 24 h, Conc. 0.03 mM, read-out: Energy Use by DMSO-Differentiated HL-60 Cells): 119% | activity at 100 µM ([2]; Homo sapiens, HL-60, 24 h, Conc. 0.10 mM, read-out: Energy Use by DMSO-Differentiated HL-60 Cells): 123% | activity at 330 µM ([2]; Homo sapiens, HL-60, 24 h, Conc. 0.33 mM, read-out: Energy Use by DMSO-Differentiated HL-60 Cells): 128% | activity at 1000 µM ([2]; Homo sapiens, HL-60, 24 h, Conc. 1.00 mM, read-out: Energy Use by DMSO-Differentiated HL-60 Cells): 157% | activity at 3300 µM ([2]; Homo sapiens, HL-60, 24 h, Conc. 3.3 mM, read-out: Energy Use by DMSO-Differentiated HL-60 Cells): 172% | activity at 10000 µM ([2]; Homo sapiens, HL-60, 24 h, Conc. 10 mM, read-out: Energy Use by DMSO-Differentiated HL-60 Cells): 171% | activity at 15000 µM ([2]; Homo sapiens, HL-60, 24 h, Conc. 15 mM, read-out: Energy Use by DMSO-Differentiated HL-60 Cells): 140% | activity at 20000 µM ([2]; Homo sapiens, HL-60, 24 h, Conc. 20 mM, read-out: Energy Use by DMSO-Differentiated HL-60 Cells): 114%
